Patent publication US12162872B2, “Cycloalkylurea derivative” (Sumitomo Pharma Co., Ltd., priority 2019, dated 2024)

Target: T1, Human orexin receptor type 2 (Homo sapiens, UniProt O43614)
T1 construct: expressed in transfected cells; host or cells: CHO cells (transient expression)
T1 sequence (O43614 1-444): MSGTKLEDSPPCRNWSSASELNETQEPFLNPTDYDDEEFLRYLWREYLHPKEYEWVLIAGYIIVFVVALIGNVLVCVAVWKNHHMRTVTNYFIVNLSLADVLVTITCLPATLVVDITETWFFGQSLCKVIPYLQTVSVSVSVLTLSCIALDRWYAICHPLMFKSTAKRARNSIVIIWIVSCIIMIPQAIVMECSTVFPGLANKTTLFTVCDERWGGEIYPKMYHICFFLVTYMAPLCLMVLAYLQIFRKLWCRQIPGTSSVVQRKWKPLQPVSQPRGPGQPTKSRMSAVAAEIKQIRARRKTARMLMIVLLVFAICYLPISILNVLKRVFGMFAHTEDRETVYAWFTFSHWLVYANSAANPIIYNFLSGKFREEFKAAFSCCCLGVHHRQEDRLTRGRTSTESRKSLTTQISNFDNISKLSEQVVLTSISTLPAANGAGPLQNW
Experiment: Test 1: Evaluation of agonist activity for orexin receptor type 2 (aequorin luminescence, intracellular calcium mobilization in CHO cells)
Assay type: cell-based
Settings: relative percentage of luminescence for the luminescence (100%) of Orexin A (100 pM); CHO cells transiently expressing human orexin receptor type 2 and apoaequorin; Orexin A Lot. 641114
Protocol: Test 1: Evaluation of Agonist Activity for Orexin Receptor Type 2
Human orexin receptor type 2 and apoaequorin were transiently expressed in CHO cells, and the agonist activity was evaluated based on intracellular calcium mobilization with ligand stimulation. The CHO cells transiently-expressed human orexin receptor type 2 and apoaequorin were seeded on a 384-well plate by 2,000 cells/well, and then incubated for 16-22 hours. After the plate was returned to room temperature, Coelenterazine hcp (final concentration: 1 μM) was added to the plate, and the plate was allowed to stand at room temperature for 2 hours. And then, Orexin A (PEPTIDE INSTITUTE, INC., Lot. 641114) or each test compound was added to the plate, and the luminescence of the cells was measured with FDSS7000 (Hamamatsu Photonics K.K.), wherein Orexin A and each test compound were dissolved in DMSO (final concentration: 0.1%), and diluted with a buffer (Hanks, 20 mM HEPES, 0.1% BSA). The agonist activity of each test compound for orexin receptor type 2 was calculated as relative percentage of luminescence for the luminescence (100%) of Orexin A (100 pM).

| Compound | agonist activity (%) |
| --- | --- |
| Cc1ccc(C2CCN(C(=O)N[C@H]3CCCC[C@@H]3N3CCN(C(C)C)CC3)CC2)cc1 (racemic) [Example 1, rac-4-(4-Methylphenyl)-N-{(1S,2S)-2-[4-(propan-2-yl)piperazin-1-yl]cyclohexyl}piperidine-1-carboxamide] | 137% |
| CCN1CCN([C@H]2CCCC[C@H]2NC(=O)N2CCC(c3ccc(C)cc3)CC2)CC1 (racemic) [Example 2, rac-N-[(1R,2S)-2-(4-ethylpiperazin-1-yl)cyclohexyl]-4-(4-methylphenyl)piperidine-1-carboxamide] | 58% |
| Cc1nc(C2(C)CCN(C(=O)N[C@H]3CCCC[C@@H]3N3CCN(C(C)C)CC3)CC2)no1 (racemic) [Example 3, rac-4-methyl-4-(5-methyl-1,2,4-oxadiazol-3-yl)-N-{(1S,2S)-2-[4-(propan-2-yl)piperazin-1-yl]cyclohexyl}piperidine-1-carboxamide] | 67% |
| CO[C@H]1CCC[C@H](N2CCN(C(C)C)CC2)[C@H]1NC(=O)N1CCC(c2ccc(C)cc2)CC1 (racemic) [Example 4, rac-N-{(1R,2S,6S)-2-methoxy-6-[4-(propan-2-yl)piperazin-1-yl]cyclohexyl}-4-(4-methylphenyl)piperidine-1-carboxamide] | 62% |
| Cc1ccc(C2CCN(C(=O)N[C@H]3CCC[C@@H]3N3CCN(C(C)C)CC3)CC2)cc1 (racemic) [Example 5, rac-4-(4-methylphenyl)-N-{(1S,2S)-2-[4-(propan-2-yl)piperazin-1-yl]cyclopentyl}piperidine-1-carboxamide] | 103% |
| CC(C)N1CCN([C@H]2CCC[C@@H]2NC(=O)N2CCC(C)(c3cc(C4CC4)on3)CC2)CC1 (racemic) [Example 6, rac-4-(5-cyclopropyl-1,2-oxazol-3-yl)-4-methyl-N-{(1S,2S)-2-[4-(propan-2-yl)piperazin-1-yl]cyclopentyl}piperidine-1-carboxamide] | 43% |
| CC(C)N1CCN([C@H]2[C@H](NC(=O)N3CCC(C)(c4noc(C5CC5)n4)CC3)CCCC2(F)F)CC1 (racemic) [Example 7, rac-4-(5-cyclopropyl-1,2,4-oxadiazol-3-yl)-N-{(1R,2S)-3,3-difluoro-2-[4-(propan-2-yl)piperazin-1-yl]cyclohexyl}-4-methylpiperidine-1-carboxamide] | 75% |
| Cc1ccc(C2CCN(C(=O)N[C@@H]3[C@@H](N4CCN(C(C)C)CC4)CCCC3(F)F)CC2)cc1 (racemic) [Example 8, rac-N-{(1R,6S)-2,2-difluoro-6-[4-(propan-2-yl)piperazin-1-yl]cyclohexyl}-4-(4-methylphenyl)piperidine-1-carboxamide] | 207% |
| CC(C)N1CCN([C@H]2CCCC(F)(F)[C@@H]2OC(=O)N2CCC(C)(c3noc(C4CC4)n3)CC2)CC1 (racemic) [Example 9, rac-(1R,6S)-2,2-difluoro-6-[4-(propan-2-yl)piperazin-1-yl]cyclohexyl 4-(5-cyclopropyl-1,2,4-oxadiazol-3-yl)-4-methylpiperidine-1-carboxylate] | 207% |
| Cc1nc(C2(C)CCN(C(=O)O[C@@H]3[C@@H](N4CCN(C(C)C)CC4)CCCC3(F)F)CC2)no1 (racemic) [Example 10, rac-(1R,6S)-2,2-difluoro-6-[4-(propan-2-yl)piperazin-1-yl]cyclohexyl 4-methyl-4-(5-methyl-1,2,4-oxadiazol-3-yl)piperidine-1-carboxylate] | 213% |
| CC(C)N1CCN([C@H]2CCCC(F)(F)[C@@H]2OC(=O)N2CCC(C)(c3cc(C4CC4)on3)CC2)CC1 (racemic) [Example 11, rac-(1R,6S)-2,2-difluoro-6-[4-(propan-2-yl)piperazin-1-yl]cyclohexyl 4-(5-cyclopropyl-1,2-oxazol-3-yl)-4-methylpiperidine-1-carboxylate] | 211% |
| CC(C)N1CCN([C@H]2CCCC(F)(F)[C@@H]2OC(=O)N2CCC(C)(c3ncn(C4CC4)n3)CC2)CC1 (racemic) [Example 13, rac-(1R,6S)-2,2-difluoro-6-[4-(propan-2-yl)piperazin-1-yl]cyclohexyl 4-(1-cyclopropyl-1H-1,2,4-triazol-3-yl)-4-methylpiperidine-1-carboxylate] | 56% |
| CC(C)c1ccc(C2=CCCCC2NC(=O)N2CCC(C)(c3cc(C4CC4)on3)CC2)cn1 (racemic) [Example 15, rac-4-(5-cyclopropyl-1,2-oxazol-3-yl)-4-methyl-N-{2-[6-(propan-2-yl)pyridin-3-yl]cyclohex-2-en-1-yl}piperidine-1-carboxamide] | 62% |
| CC(C)c1ccc(C2=CCCCC2NC(=O)N2CCC(C)(c3noc(C4CC4)n3)CC2)cn1 (racemic) [Example 16, rac-4-(5-cyclopropyl-1,2,4-oxadiazol-3-yl)-4-methyl-N-{2-[6-(propan-2-yl)pyridin-3-yl]cyclohex-2-en-1-yl}piperidine-1-carboxamide] | 39% |
| CCN1CCN([C@H]2CCCC[C@@H]2NC(=O)N2CCC(c3ccc(C)cc3)CC2)CC1 (racemic) [Example 17, rac-N-[(1S,2S)-2-(4-Ethylpiperazin-1-yl)cyclohexyl]-4-(4-methylphenyl)piperidine-1-carboxamide] | 72% |
| CC(C)N1CC=C(C2=CCCCC2NC(=O)N2CCC(C)(c3noc(C4CC4)n3)CC2)CC1 (racemic) [Example 18, rac-4-(5-Cyclopropyl-1,2,4-oxadiazol-3-yl)-4-methyl-N-{2-[1-(propan-2-yl)-1,2,3,6-tetrahydropyridin-4-yl]cyclohex-2-en-1-yl}piperidine-1-carboxamide] | 73% |
| CC(C)N1CCN([C@H]2CCCC(F)(F)[C@@H]2NC(=O)N2CCC(C)(c3noc(C4CC4)n3)CC2)CC1 (racemic) [Example 19, rac-4-(5-Cyclopropyl-1,2,4-oxadiazol-3-yl)-N-{(1R,6S)-2,2-difluoro-6-[4-(propan-2-yl)piperazin-1-yl]cyclohexyl}-4-methylpiperidine-1-carboxamide] | 167% |
| CC(C)N1CCN([C@H]2CCCC(F)(F)[C@@H]2NC(=O)N2CCC(C)(c3cc(C4CC4)on3)CC2)CC1 (racemic) [Example 20, rac-4-(5-cyclopropyl-1,2-oxazol-3-yl)-N-{(1R,6S)-2,2-difluoro-6-[4-(propan-2-yl)piperazin-1-yl]cyclohexyl}-4-methylpiperidine-1-carboxamide] | 160% |
| CC(C)N1CCN([C@H]2CCCC(F)(F)[C@@H]2NC(=O)N2CCC(C)(c3nc4ccccc4o3)CC2)CC1 (racemic) [Example 21, rac-4-(1,3-benzoxazol-2-yl)-N-{(1R,6S)-2,2-difluoro-6-[4-(propan-2-yl)piperazin-1-yl]cyclohexyl}-4-methylpiperidine-1-carboxamide] | 153% |
| CC(C)N1CCN([C@H]2CCCC(F)(F)[C@@H]2NC(=O)N2CCC(C)(C3CCCC3)CC2)CC1 (racemic) [Example 26, rac-4-cyclopentyl-N-{(1R,6S)-2,2-difluoro-6-[4-(propan-2-yl)piperazin-1-yl]cyclohexyl}-4-methylpiperidine-1-carboxamide] | 198% |
| CC(C)N1CCN([C@H]2CCCC(F)(F)[C@@H]2NC(=O)N2CCC(C)(c3nc4c(o3)CCCC4)CC2)CC1 (racemic) [Example 27, rac-N-{(1R,6S)-2,2-difluoro-6-[4-(propan-2-yl)piperazin-1-yl]cyclohexyl}-4-methyl-4-(4,5,6,7-tetrahydro-1,3-benzoxazol-2-yl)piperidine-1-carboxamide] | 162% |
| CCc1nc(C2(C)CCN(C(=O)N[C@@H]3[C@@H](N4CCN(C(C)C)CC4)CCCC3(F)F)CC2)no1 (racemic) [Example 28, rac-N-{(1R,6S)-2,2-difluoro-6-[4-(propan-2-yl)piperazin-1-yl]cyclohexyl}-4-(5-ethyl-1,2,4-oxadiazol-3-yl)-4-methylpiperidine-1-carboxamide] | 190% |
| CC(C)N1CCN([C@H]2CCCC(F)(F)[C@@H]2NC(=O)N2CCC(C)(c3ncn(C4CC4)n3)CC2)CC1 (racemic) [Example 29, rac-4-(1-cyclopropyl-?H-1,2,4-triazol-3-yl)-N-{(1R,6S)-2,2-difluoro-6-[4-(propan-2-yl)piperazin-1-yl]cyclohexyl}-4-methylpiperidine-1-carboxamide] | 109% |
| CC(C)N1CCN([C@H]2CCCC(F)(F)[C@@H]2NC(=O)N2CCC(C)(C3CCC(F)(F)CC3)CC2)CC1 (racemic) [Example 30, rac-4-(4,4-difluorocyclohexyl)-N-{(1R,6S)-2,2-difluoro-6-[4-(propan-2-yl)piperazin-1-yl]cyclohexyl}-4-methylpiperidine-1-carboxamide] | 128% |
